Results reported in patent US11000033B2, “Ketone or oxime compound, and herbicide” (NISSAN CHEMICAL CORPORATION, priority 2014, dated 2021).

Legend:
Type in all cases: in vivo
[1] = test system: Echinochloa oryzacola Vasing.; assay: Test Example 1: herbicidal activity, application before weed generation in submerged conditions (symbol A); conditions: application herbicide amount 320 g/ha
Procedure, shortened: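 Application before weed emergence: an aqueous dilution of the emulsion formulation was poured onto the surface of 4 cm-deep floodwater on the day of sowing. Effect was judged after 3 weeks (greenhouse, 25–30 °C).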

transplanted rice plant = assay: Test Example 1: effect on crop, application before weed generation in submerged conditions (symbol a); conditions: application herbicide amount 320 g/ha
Procedure, shortened: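 Rice at 2.5 leaf stage transplanted into submerged soil (4 cm depth) sown with three weed species; herbicide applied before weed emergence.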

Scirpus juncoides = assay: Test Example 2: herbicidal activity, application during weed generation in submerged conditions (symbol B); conditions: Table 23; application herbicide amount 320 g/ha; grade 0-5 by criteria of Test Example 1
Procedure, shortened: (§1)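 Each pot contained alluvial soil under 4 cm of water with seeds of all three weeds sown together. Following growth at 25° C. to 30° C. to the one- to two-leaf stage, the floodwater received diluted emulsion at a predetermined amount; visual assessment followed at 3 weeks.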

Monochoria vaginalis = assay: Test Example 2: herbicidal activity, application during weed generation in submerged conditions (symbol C); conditions: Table 23; application herbicide amount 320 g/ha; grade 0-5 by criteria of Test Example 1
Procedure, shortened: as §1

Cyperus difformis = assay: Test Example 3: herbicidal effect by foliage application, Wagner pot (symbol E); conditions: application herbicide amount 320 g/ha
Procedure, shortened: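 Seeds sown in alluvial soil kept under 0.1–0.5 cm water, greenhouse 25–30 °C; 14 d growth. Leaves treated by small sprayer with water-diluted emulsion at a predetermined rate. Effect graded by set scale, 3 weeks.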

[2] = test system: directly sowed rice plant; assay: Test Example 3: effect on crop by foliage application, Wagner pot (symbol b); conditions: application herbicide amount 320 g/ha
Procedure, shortened: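 Steps: fill a 1/10000-are Wagner pot with alluvial soil; add water and mix to submerge at 0.1–0.5 cm depth; sow rice plus Echinochloa crus-galli var. crus-galli, Leptochloa chinensis and Cyperus difformis; grow in a 25–30 °C greenhouse.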

soybean = assay: Test Example 4: effect on crop by soil treatment (symbol d); conditions: 320 g/ha
Procedure, shortened: (§2)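 Diluvial soil (sterilized) in boxes; seeds placed spot-wise alongside weed species; ~1.5 cm covering soil. Greenhouse, 25–30° C.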

rice = assay: Test Example 4: effect on crop by soil treatment (symbol b); conditions: 320 g/ha
Procedure, shortened: as §2

wheat = assay: Test Example 4: effect on crop by soil treatment (symbol e); conditions: 320 g/ha
Procedure, shortened: as §2

Avena fatua = assay: Test Example 5: herbicidal effect by foliage application, plastic box (symbol I); conditions: 320 g/ha, 3 weeks after application
Procedure, shortened: (§3)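 Emulsion formulation, diluted with water to the intended rate, was applied uniformly to leaves by small sprayer. Recipients were 14-day greenhouse-grown seedlings (25° C. to 30° C.). Assessment followed at 3 weeks.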

Lolium multiflorum Lam. = assay: Test Example 5: herbicidal effect by foliage application, plastic box (symbol K); conditions: 320 g/ha, 3 weeks after application
Procedure, shortened: as §3

Chenopodium album = assay: Test Example 5: herbicidal effect by foliage application, plastic box (symbol O); conditions: 320 g/ha, 3 weeks after application
Procedure, shortened: as §3

corn = assay: Test Example 5: effect on crop by foliage application, plastic box (symbol c); conditions: 320 g/ha, 3 weeks after application
Procedure, shortened: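 A greenhouse held between 25° C. and 30° C. was used to grow plants sown spot-wise, beneath ~1.5 cm of soil, in boxes of sterilized diluvial soil.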

Row | SMILES | Herbicidal effect grade, A: Echinochloa oryzacola Vasing. [1] | Effect grade on crop, a: transplanted rice plant (transplanted rice plant) | Herbicidal effect grade, B: Scirpus juncoides (Scirpus juncoides) | Herbicidal effect grade, C: Monochoria vaginalis (Monochoria vaginalis) | herbicidal effect on E, grade 0-5 (Cyperus difformis) | effect on crop b (directly sowed rice plant), grade 0-5 [2] | d: soybean, effect grade on crop (soybean) | b: directly sowed rice plant, effect grade on crop (rice) | e: wheat, effect grade on crop (wheat) | I: Avena fatua, herbicidal effect (criteria 0-5) (Avena fatua) | K: Lolium multiflorum Lam., herbicidal effect (criteria 0-5) (Lolium multiflorum Lam.) | O: Chenopodium album, herbicidal effect (criteria 0-5) (Chenopodium album) | c: corn, effect on crop (criteria 0-5) (corn)
1 | CON=C(C)CC1CC(OC(=O)COc2ccc3ccccc3c2)=C(c2c(C)cc(C)cc2C)C1=O (centres unmarked) [1-083] | 5 (Herbicidal ratio of 90% or more (almost completely withered)) | 5 (Herbicidal ratio of 90% or more (almost completely withered)) | 4 (Herbicidal ratio of 70% or higher and lower than 90%) | 3 (Herbicidal ratio of 40% or higher and lower than 70%) | 5 (Herbicidal ratio of 90% or more (almost completely withered)) | 3 (Herbicidal ratio of 40% or higher and lower than 70%) | 1 (Herbicidal ratio of 5% or higher and lower than 20%) | 5 (Herbicidal ratio of 90% or more (almost completely withered)) | 4 (Herbicidal ratio of 70% or higher and lower than 90%) | 5 (Herbicidal ratio of 90% or more (almost completely withered)) | 5 (Herbicidal ratio of 90% or more (almost completely withered)) | 0 (Herbicidal ratio of 5% or lower (almost no effect)) | 5 (Herbicidal ratio of 90% or more (almost completely withered))
2 | CON=C(CC1CC(O)=C(c2c(C)cc(C)cc2C)C1=O)C1CCCCC1 (centres unmarked) [1-085] | 4 (Herbicidal ratio of 70% or higher and lower than 90%) | 3 (Herbicidal ratio of 40% or higher and lower than 70%) | 0 (Herbicidal ratio of 5% or lower (almost no effect)) | 0 (Herbicidal ratio of 5% or lower (almost no effect)) | 0 (Herbicidal ratio of 5% or lower (almost no effect)) | 5 (Herbicidal ratio of 90% or more (almost completely withered)) | 0 (Herbicidal ratio of 5% or lower (almost no effect)) | 5 (Herbicidal ratio of 90% or more (almost completely withered)) | 0 (Herbicidal ratio of 5% or lower (almost no effect)) | 3 (Herbicidal ratio of 40% or higher and lower than 70%) | 3 (Herbicidal ratio of 40% or higher and lower than 70%) | 0 (Herbicidal ratio of 5% or lower (almost no effect)) | 5 (Herbicidal ratio of 90% or more (almost completely withered))
3 | CON=C(C)CC1CC(OC(=O)C(C)Oc2ccc(Oc3cnc4cc(Cl)ccc4n3)cc2)=C(c2c(C)cc(C)cc2C)C1=O (centres unmarked) [1-087] | 5 (Herbicidal ratio of 90% or more (almost completely withered)) | 5 (Herbicidal ratio of 90% or more (almost completely withered)) | 5 (Herbicidal ratio of 90% or more (almost completely withered)) | 1 (Herbicidal ratio of 5% or higher and lower than 20%) | 5 (Herbicidal ratio of 90% or more (almost completely withered)) | 5 (Herbicidal ratio of 90% or more (almost completely withered)) | 2 (Herbicidal ratio of 20% or higher and lower than 40%) | 5 (Herbicidal ratio of 90% or more (almost completely withered)) | 5 (Herbicidal ratio of 90% or more (almost completely withered)) | 5 (Herbicidal ratio of 90% or more (almost completely withered)) | 5 (Herbicidal ratio of 90% or more (almost completely withered)) | 0 (Herbicidal ratio of 5% or lower (almost no effect)) | 5 (Herbicidal ratio of 90% or more (almost completely withered))
4 | CON=C(C)CC1CC(OC(=O)C2=CCCC2)=C(c2c(C)cc(C)cc2C)C1=O (centres unmarked) [1-088] | 5 (Herbicidal ratio of 90% or more (almost completely withered)) | 5 (Herbicidal ratio of 90% or more (almost completely withered)) | 5 (Herbicidal ratio of 90% or more (almost completely withered)) | 3 (Herbicidal ratio of 40% or higher and lower than 70%) | 5 (Herbicidal ratio of 90% or more (almost completely withered)) | 5 (Herbicidal ratio of 90% or more (almost completely withered)) | 0 (Herbicidal ratio of 5% or lower (almost no effect)) | 5 (Herbicidal ratio of 90% or more (almost completely withered)) | 3 (Herbicidal ratio of 40% or higher and lower than 70%) | 5 (Herbicidal ratio of 90% or more (almost completely withered)) | 5 (Herbicidal ratio of 90% or more (almost completely withered)) | 2 (Herbicidal ratio of 20% or higher and lower than 40%) | 5 (Herbicidal ratio of 90% or more (almost completely withered))
5 | CON=C(C)CC1CC(OC(=O)C2=C(Br)CCC2)=C(c2c(C)cc(C)cc2C)C1=O (centres unmarked) [1-089] | 5 (Herbicidal ratio of 90% or more (almost completely withered)) | 5 (Herbicidal ratio of 90% or more (almost completely withered)) | 4 (Herbicidal ratio of 70% or higher and lower than 90%) | 3 (Herbicidal ratio of 40% or higher and lower than 70%) | 5 (Herbicidal ratio of 90% or more (almost completely withered)) | 5 (Herbicidal ratio of 90% or more (almost completely withered)) | 0 (Herbicidal ratio of 5% or lower (almost no effect)) | 5 (Herbicidal ratio of 90% or more (almost completely withered)) | 1 (Herbicidal ratio of 5% or higher and lower than 20%) | 5 (Herbicidal ratio of 90% or more (almost completely withered)) | 5 (Herbicidal ratio of 90% or more (almost completely withered)) | 1 (Herbicidal ratio of 5% or higher and lower than 20%) | 5 (Herbicidal ratio of 90% or more (almost completely withered))
